Data as given in patent US20250275968A1, “INHIBITORS OF TAU PROTEINS” (DEUTSCHES ZENTRUM FÜR NEURODEGENERATIVE ERKRANKUNGEN E.V., priority 2022, published 2025).
Where a name gives a salt, the structure may show the parent alone.

How the values were obtained:
15N-labeled 2N4R tau = biological target: T1, 15N-labeled 2N4R tau (Homo sapiens, UniProt P10636); assay: SOFAST-HMQC NMR binding to monomeric tau; settings: for binding to tau (NMR spectroscopy): 18 μM tau, 50 mM sodium phosphate pH 6.8, 16 h at 37° C., spectra at 5° C.
T1 construct: Full-length 2N4R tau was incubated with Osimertinib mesylate
Excerpt: (A) Overlaid spectra of 2N4R tau with (black) and without (grey) a 100-fold molar excess of Osimertinib mesylate.
To obtain residue-specific information about the interaction between Tau and the compounds, ^1H-^15N correlation spectra of 2N4R Tau were monitored over the course of a titration with increasing amounts of compound. The ^1H-^15N SOFAST-HMQC (Reference: Schanda, P., Kupce, E. & Brutscher, B. SOFAST-HMQC experiments for recording two-dimensional heteronuclear correlation spectra of proteins within a few seconds. J. Biomol. NMR 33, 199-211 (2005)) spectra of [U-^15N]-Tau were acquired at 5° C. on a Bruker 800 MHz spectrometer equipped with a triple-resonance cryoprobe. Tau samples (18-25 μM) were prepared in NMR buffer containing 10% (v/v) D2O, and with compound concentrations that corresponded to Tau:compound mole ratios of 1:10 and 1:100. All NMR samples were incubated overnight (˜16 h) at 37° C. prior to spectral acquisition. Tau amide assignments were taken from a previous study (Reference: Mukrasch, M. et al. Structural polymorphism of 441-residue tau at single residue resolution. PLoS Biol. 7, e34 (2009)). However, because previous assignments were obtained using a Tau sample prepared in the presence of reducing agents, some amide resonances belonging to the repeat region of Tau (close to C291 and C322) were not unambiguously transferred to the SOFAST-HMQC spectra acquired under oxidizing conditions. Therefore, to obtain nearly complete backbone assignments in the repeat region, 3D HNCA, 3D HNCOCA, and 3D CBCACONH spectra were recorded for a [U-^13C,^15N]-4R Tau (K18 construct) sample prepared under the same buffer condition. The weighted, normalized chemical shift perturbations (CSP) were calculated as CSP=√[0.5 [(Δδ H)^2+(Δδ N)^2/25]. NMR signal intensity ratios, I/I0 (where I is the peak intensity of Tau amide backbone resonances in the presence of the compounds, and I0 is the peak intensity in the absence of the compounds), were calculated for each titration point.

tau(244-372, 13818 Da) = biological target: T2, tau(244-372, 13818 Da) (Homo sapiens, UniProt P10636); assay: ESI-MS covalent modification of tau; assay type: binding
T2 construct: comprising residues 244-372 of 2N4R Tau
Experimental: This analysis was performed using the 4R Tau construct (K18 construct, 13818 Da) comprising residues 244-372 of 2N4R Tau. Compounds (330 μM) were incubated with 4R Tau (65 μM) for 16 h at 37° C. in 10 mM ammonium bicarbonate at pH 7.0. The compound/4R Tau mixtures were injected into an LC system (ACQUITY) coupled to a single quadrupole mass detection system (SQ Detector 2, Waters) with diode-array detectors (DAD). The DAD spectrum covers wavelengths of 210-400 nm. Components of the compound-4R Tau mixture were separated using a BioResolve RP mAb column (Waters) with a gradient of 5-95% buffer B (buffer A is 0.1% TFA in water and buffer B is 0.1% TFA in acetonitrile). Covalent modification of 4R Tau corresponded to mass additions of 500 Da (Osimertinib) and 486 Da (AZ7550 or AZ5104).

Full-length 2N4R tau = biological target: T3, Full-length 2N4R tau (Homo sapiens, UniProt P10636); assay: MS/MS analysis of compound adduct in tau; assay type: binding; settings: 1:5 mole ratio tau:compound, overnight at 37° C.
T3 construct: Full-length 2N4R tau was incubated with Osimertinib mesylate
Experimental: Compounds (330 μM) were incubated with 2N4R Tau (65 μM) in buffer (25 mM HEPES, 10 mM KCl, 5 mM MgCl2, pH 7.2) for 16 h at 37° C. then stored at 4° C. until in-gel digestion.
In-gel digestion using trypsin (Sigma Aldrich) followed by extraction of peptides for mass spectrometry were performed as described previously (Reference: Shevchenko, A., Tomas, H., Havlis, J., Olsen, J. V., and Mann, M. (2006). In-gel digestion for mass spectrometric characterization of proteins and proteomes. Nature protocols 1, 2856-2860). Extracted peptides were resuspended in 2% acetonitrile and 0.05% TFA and analyzed using a Orbitrap Exploris 480 Mass Spectrometer (Thermo Fisher). The mass spectrometer used an emitter voltage at […] and ion transfer tube temperature at 300° C. Full scans were recorded in the range 350 to 1600 m/z with a mass resolution of 15000. Peptides were fragmented in the collision cell with a 28% energy setting. Tandem mass spectra were acquired using Scan Range Mode “Define First Mass” and isolation window of 1.6 m/z with a mass resolution of 15000.

[1] = tested on: tau-induced degeneration of Drosophila eyes (GMR-Gal4/WT tau); assay: Drosophila neurodegeneration model (eye degeneration); assay type: in vivo
Experimental: Stock solutions of individual compounds were prepared by dissolving 10 mg of the compound in 100 μl of 100% DMSO. Osimertinib, Osimertinib mesylate and AZ7550 mesylate were orally fed to the flies by mixing them with food. The final concentration of each compound, which was used for treating the Drosophila, was derived on the basis of recommended concentrations for human use (reference concentration) based on body weight.
We have used three concentrations for each compound. One was equal to the reference concentration, and two were higher than the reference concentration. Final concentrations of different compounds mixed with fly food are: Osimertinib mesylate, […]; Osimertinib, […]; AZ 7550 mesylate, 10 µM and 20 µM. After hatching, first instar larvae were transferred onto the food containing one of the compounds. Food mixed with drug at required concentration was replaced with fresh food every 48 h.
Light microscopy was performed after mounting the fly heads on the glass slide using a double-sided adhesive tape. Full-eye images were captured with the help of an Infinity Analyze camera attached to an Olympus SZX7 microscope with a halogen light source. Total eye surface area and degenerated eye surface area were marked and calculated with Infinity Analyze software (Lumenera corporation). Percentage of degenerated area was calculated and plotted using GraphPad Prism 8.
After the eclosion, treated and control flies (2-3 days old) were fixed in 1% formaldehyde for two hours, followed by serial dehydration steps of 12 hrs each in 25%, 50%, 75% and 100% ethanol were carried out. Flies were stored in 100% ethanol and dried with CPD before mounting on the stab for imaging. Eye Images were captured at 150× and analyzed using Infinity Analyze software.

T1 sequence (P10636 1-441 isoform P10636-8): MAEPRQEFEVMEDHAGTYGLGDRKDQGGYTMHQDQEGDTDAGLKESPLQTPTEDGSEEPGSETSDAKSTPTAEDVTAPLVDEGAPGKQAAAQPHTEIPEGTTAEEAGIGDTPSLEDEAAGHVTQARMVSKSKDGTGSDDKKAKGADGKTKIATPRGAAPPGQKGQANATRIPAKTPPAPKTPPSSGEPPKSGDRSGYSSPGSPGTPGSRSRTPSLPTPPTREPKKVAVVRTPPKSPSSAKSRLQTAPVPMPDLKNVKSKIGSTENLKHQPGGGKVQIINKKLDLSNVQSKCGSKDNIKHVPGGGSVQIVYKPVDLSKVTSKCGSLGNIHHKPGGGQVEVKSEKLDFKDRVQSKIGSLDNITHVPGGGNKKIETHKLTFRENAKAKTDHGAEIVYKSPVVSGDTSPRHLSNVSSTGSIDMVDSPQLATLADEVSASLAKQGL
T3 sequence (P10636 1-441 isoform P10636-8): as above
T2 sequence (P10636 561-689): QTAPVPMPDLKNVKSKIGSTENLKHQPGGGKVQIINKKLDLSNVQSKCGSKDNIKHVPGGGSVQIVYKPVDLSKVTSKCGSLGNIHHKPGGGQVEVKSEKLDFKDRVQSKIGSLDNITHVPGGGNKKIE

binding to tau (NMR spectroscopy) (15N-labeled 2N4R tau)	NMR signal intensity ratio I/I0 (15N-labeled 2N4R tau; 16 h incubation at 37° C.)	tau peptide spectrum matches showing compound-modified cysteine sites (Full-length 2N4R tau)	SMILES	covalent modification of cysteines in tau (ESI-MS) (tau(244-372, 13818 Da))	covalent modification of C291 and C322 (peptide mass spectra, LC-MS/MS) (Full-length 2N4R tau; tryptic digestion)	tau-induced degeneration of Drosophila eyes (percent degeneration, light microscopy) ([1]; GMR-Gal4/WT tau flies treated in food from larvae stage to adult stage)	signs of eye degeneration in SEM micrographs ([1]; compared to control with GMR-Gal4/WT tau)
reveals binding	above 1	–	C=CC(=O)Nc1cc(Nc2nccc(-c3c[nH]c4ccccc34)n2)c(OC)cc1N(C)CCN(C)C [Compound 3, N-[2-[[2-(dimethylamino)ethyl]methylamino]-5-[[4-(1H-indol-3-yl)-2-pyrimidinyl]amino]-4-methoxyphenyl]-2-Propenamide]	confirms covalent modification of cysteines	–	–	–
reveals binding	–	about 350	C=CC(=O)Nc1cc(Nc2nccc(-c3cn(C)c4ccccc34)n2)c(OC)cc1N(C)CCN(C)C [Osimertinib mesylate, N-[2-(2-Dimethylaminoethylmethylamino)-4-methoxy-5-[[4-(1-methylindol-3-yl)pyrimidin-2-yl]amino]phenyl]prop-2-enamide Mesylate Salt]	–	confirm covalent modification of cysteines in tau	rescue tau-induced degeneration of Drosophila eyes	–
–	–	–	C=CC(=O)Nc1cc(Nc2nccc(-c3cn(C)c4ccccc34)n2)c(OC)cc1N(C)CCN(C)C [Osimertinib, N-[2-(2-Dimethylaminoethylmethylamino)-4-methoxy-5-[[4-(1-methylindol-3-yl)pyrimidin-2-yl]amino]phenyl]prop-2-enamide]	confirms covalent modification of cysteines	–	–	visibly reduced signs of degeneration
